{"source": "patent US9278874B2", "about": "“Prevention of starch degradation in pulp, paper or board making processes using zinc ions and an oxidizing biocide” (KEMIRA OYJ, priority 2011, dated 2016)", "format_in_all_cases": "cell-based", "key": {"[1]": {"system": "starch degrading bacteria", "experiment": "Prevention of starch degradation in head box stock using chlorine dioxide (ClO2) and zinc; remaining starch by iodine staining", "conditions": "for Prevention of starch degradation (in words): 10 mg/l zinc or 5-20 mg/l ClO2 alone; for Starch concentration 4 h: contact time 4 h; for Starch concentration 24 h: contact time 24 h", "protocol": "(§1) Prevention of starch degradation was studied using an oxidizing biocide (chlorine dioxide, ClO2) and zinc. Head box stock from packaging board mill, stored at +4° C. after collecting, was amended with 0.8 g/l cooked starch and incubated overnight at 45° C. with 150 rpm shaking to induce the growth of starch degrading bacteria. The stock was divided into 30 ml portions and appropriate amounts of zinc (Zn^2+ from zinc chloride) and ClO2 were added together with a new starch addition (400 mg/l). After 4 h and 24 h incubation (+45° C., 150 rpm) the remaining starch was quantified using iodine staining (Lugol-solution) at 590 nm. An external standard curve was used to convert absorbance values into starch amounts."}, "[2]": {"system": "starch degrading bacteria", "experiment": "Prevention of starch degradation in head box stock using glutaraldehyde and zinc; remaining starch by iodine staining", "conditions": "for Prevention of starch degradation (in words): 10 mg/l zinc or 5-30 mg/l glutaraldehyde alone; for Starch concentration 4 h: contact time 4 h; for Starch concentration 24 h: contact time 24 h", "protocol": "as §1, with “a non-oxidizing” for “an oxidizing”, “(glutaraldehyde)” for “(chlorine dioxide, ClO2)”, “glutaraldehyde” for “ClO2”"}, "[3]": {"system": "starch degrading bacteria", "experiment": "Prevention of starch degradation in head box stock using monochloramine (MCA) and zinc; remaining starch by iodine staining", "conditions": "for Prevention of starch degradation (in words): 10 mg/l zinc or MCA alone; for Starch concentration 4 h: contact time 4 h; for Starch concentration 24 h: contact time 24 h", "protocol": "as §1, with “(monochloramine, MCA)” for “(chlorine dioxide, ClO2)”, “MCA” for “ClO2”"}, "[4]": {"system": "starch degrading bacteria", "experiment": "Prevention of starch degradation in head box stock using performic acid (PFA) and zinc; remaining starch by iodine staining", "conditions": "for Prevention of starch degradation (in words): 10 mg/l zinc or 20-120 mg/l PFA alone; for Starch concentration 4 h: contact time 4 h; for Starch concentration 24 h: contact time 24 h", "protocol": "as §1, with “(performic acid, PFA)” for “(chlorine dioxide, ClO2)”, “PFA” for “ClO2”"}, "[5]": {"conditions": "PFA 11 mg/l (active ingredient)"}, "[6]": {"conditions": "PFA 16 mg/l (active ingredient)"}, "[7]": {"conditions": "Zn 10 mg/l (mg Zn2+ per l), 400 mg/l starch added"}}, "data": [{"smiles": "[O][Cl+][O-]", "note": "[ClO2, chlorine dioxide]", "values": [{"measurement": "Prevention of starch degradation (in words)", "setting": "[1]; 4 h", "result": "prevented most of the starch degradation"}, {"measurement": "Prevention of starch degradation (in words)", "setting": "[1]; 24 h", "result": "did not have marked effect"}, {"measurement": "Starch concentration 4 h", "setting": "[1]; ClO2 5 mg/l", "result": 128, "unit": "mg/L"}, {"measurement": "Starch concentration 24 h", "setting": "[1]; ClO2 5 mg/l", "result": 5, "unit": "mg/L"}, {"measurement": "Starch concentration 4 h", "setting": "[1]; ClO2 9 mg/l", "result": 153, "unit": "mg/L"}, {"measurement": "Starch concentration 24 h", "setting": "[1]; ClO2 9 mg/l", "result": 12, "unit": "mg/L"}, {"measurement": "Starch concentration 4 h", "setting": "[1]; ClO2 14 mg/l", "result": 197, "unit": "mg/L"}, {"measurement": "Starch concentration 24 h", "setting": "[1]; ClO2 14 mg/l", "result": 13, "unit": "mg/L"}, {"measurement": "Starch concentration 4 h", "setting": "[1]; ClO2 20 mg/l", "result": 227, "unit": "mg/L"}, {"measurement": "Starch concentration 24 h", "setting": "[1]; ClO2 20 mg/l", "result": 19, "unit": "mg/L"}]}, {"smiles": "O=CCCCC=O", "note": "[GL, glutaraldehyde]", "values": [{"measurement": "Prevention of starch degradation (in words)", "setting": "[2]; 4 h", "result": "prevented some of the starch degradation"}, {"measurement": "Prevention of starch degradation (in words)", "setting": "[2]; 24 h", "result": "did not have marked effect"}, {"measurement": "Starch concentration 4 h", "setting": "[2]; GL 5 mg/l (active substance)", "result": 85, "unit": "mg/L"}, {"measurement": "Starch concentration 24 h", "setting": "[2]; GL 5 mg/l (active substance)", "result": 3, "unit": "mg/L"}, {"measurement": "Starch concentration 4 h", "setting": "[2]; GL 10 mg/l (active substance)", "result": 103, "unit": "mg/L"}, {"measurement": "Starch concentration 24 h", "setting": "[2]; GL 10 mg/l (active substance)", "result": 5, "unit": "mg/L"}, {"measurement": "Starch concentration 4 h", "setting": "[2]; GL 20 mg/l (active substance)", "result": 96, "unit": "mg/L"}, {"measurement": "Starch concentration 24 h", "setting": "[2]; GL 20 mg/l (active substance)", "result": 4, "unit": "mg/L"}, {"measurement": "Starch concentration 4 h", "setting": "[2]; GL 30 mg/l (active substance)", "result": 93, "unit": "mg/L"}, {"measurement": "Starch concentration 24 h", "setting": "[2]; GL 30 mg/l (active substance)", "result": 6, "unit": "mg/L"}]}, {"smiles": "NCl", "note": "[MCA, monochloramine]", "values": [{"measurement": "Prevention of starch degradation (in words)", "setting": "[3]; 4 h", "result": "prevented most of the starch degradation"}, {"measurement": "Prevention of starch degradation (in words)", "setting": "[3]; 24 h", "result": "did not have any effect"}, {"measurement": "Starch concentration 4 h", "setting": "[3]; MCA 10 mg/l (active chlorine)", "result": 158, "unit": "mg/L"}, {"measurement": "Starch concentration 24 h", "setting": "[3]; MCA 10 mg/l (active chlorine)", "result": 5, "unit": "mg/L"}, {"measurement": "Starch concentration 4 h", "setting": "[3]; MCA 20 mg/l (active chlorine)", "result": 189, "unit": "mg/L"}, {"measurement": "Starch concentration 24 h", "setting": "[3]; MCA 20 mg/l (active chlorine)", "result": 41, "unit": "mg/L"}]}, {"smiles": "O=COO", "note": "[PFA, performic acid]", "values": [{"measurement": "Prevention of starch degradation (in words)", "setting": "[4]; 4 h", "result": "prevented most of the starch degradation"}, {"measurement": "Prevention of starch degradation (in words)", "setting": "[4]; 24 h", "result": "did not have marked effect"}, {"measurement": "Starch concentration 4 h", "setting": "[4]; PFA 3 mg/l (active ingredient)", "result": 114, "unit": "mg/L"}, {"measurement": "Starch concentration 24 h", "setting": "[4]; PFA 3 mg/l (active ingredient)", "result": 3, "unit": "mg/L"}, {"measurement": "Starch concentration 4 h", "setting": "[4]; PFA 5 mg/l (active ingredient)", "result": 157, "unit": "mg/L"}, {"measurement": "Starch concentration 24 h", "setting": "[4]; PFA 5 mg/l (active ingredient)", "result": 3, "unit": "mg/L"}, {"measurement": "Starch concentration 4 h", "setting": "[4]; [5]", "result": 208, "unit": "mg/L"}, {"measurement": "Starch concentration 24 h", "setting": "[4]; [5]", "result": 5, "unit": "mg/L"}, {"measurement": "Starch concentration 4 h", "setting": "[4]; [6]", "result": 215, "unit": "mg/L"}, {"measurement": "Starch concentration 24 h", "setting": "[4]; [6]", "result": 11, "unit": "mg/L"}]}, {"smiles": "[Cl-].[Cl-].[Zn+2]", "note": "[Zn, zinc chloride]", "values": [{"measurement": "Prevention of starch degradation (in words)", "setting": "[3]; 4 h", "result": "prevented most of the starch degradation"}, {"measurement": "Prevention of starch degradation (in words)", "setting": "[3]; 24 h", "result": "did not have any effect"}, {"measurement": "Starch concentration 4 h", "setting": "[3]; [7]", "result": 177, "unit": "mg/L"}, {"measurement": "Starch concentration 24 h", "setting": "[3]; [7]", "result": 8, "unit": "mg/L"}, {"measurement": "Prevention of starch degradation (in words)", "setting": "[2]; 4 h", "result": "prevented some of the starch degradation"}, {"measurement": "Prevention of starch degradation (in words)", "setting": "[2]; 24 h", "result": "did not have marked effect"}, {"measurement": "Starch concentration 4 h", "setting": "[2]; Zn 10 mg/l (mg Zn2+ per l)", "result": 193, "unit": "mg/L"}, {"measurement": "Starch concentration 24 h", "setting": "[2]; Zn 10 mg/l (mg Zn2+ per l)", "result": 21, "unit": "mg/L"}, {"measurement": "Prevention of starch degradation (in words)", "setting": "[4]; 4 h", "result": "prevented most of the starch degradation"}, {"measurement": "Prevention of starch degradation (in words)", "setting": "[4]; 24 h", "result": "did not have marked effect"}, {"measurement": "Starch concentration 4 h", "setting": "[4]; Zn 10 mg/l (mg Zn2+ per l)", "result": 181, "unit": "mg/L"}, {"measurement": "Starch concentration 24 h", "setting": "[4]; Zn 10 mg/l (mg Zn2+ per l)", "result": 38, "unit": "mg/L"}, {"measurement": "Prevention of starch degradation (in words)", "setting": "[1]; 4 h", "result": "prevented most of the starch degradation"}, {"measurement": "Prevention of starch degradation (in words)", "setting": "[1]; 24 h", "result": "did not have marked effect"}, {"measurement": "Starch concentration 4 h", "setting": "[1]; Zn 10 mg/l (mg Zn2+ per l)", "result": 219, "unit": "mg/L"}, {"measurement": "Starch concentration 24 h", "setting": "[1]; Zn 10 mg/l (mg Zn2+ per l)", "result": 28, "unit": "mg/L"}]}]}
